# Test results from ChEMBL document CHEMBL1201862, “PubChem BioAssay data set” (2004).
# The source made the active and inactive calls.
# Experiments:
# [1] = biological target: Lysosomal acid glucosylceramidase (Homo sapiens, UniProt P04062); experiment: Dose response cell-based high throughput screening assay to identify enhancers of beta-glucosidase activity. [Related pubchem assays: 784 ]; type: functional
# Hexokinase HKDC1 = biological target: T1, Hexokinase HKDC1 (Homo sapiens, UniProt Q2TB90); experiment: inhibition of HKDC1 glucose phosphorylation – biochemical, W721R variant, dose response (AID 504729); type: functional
# T1 sequence (Q2TB90 whole entry): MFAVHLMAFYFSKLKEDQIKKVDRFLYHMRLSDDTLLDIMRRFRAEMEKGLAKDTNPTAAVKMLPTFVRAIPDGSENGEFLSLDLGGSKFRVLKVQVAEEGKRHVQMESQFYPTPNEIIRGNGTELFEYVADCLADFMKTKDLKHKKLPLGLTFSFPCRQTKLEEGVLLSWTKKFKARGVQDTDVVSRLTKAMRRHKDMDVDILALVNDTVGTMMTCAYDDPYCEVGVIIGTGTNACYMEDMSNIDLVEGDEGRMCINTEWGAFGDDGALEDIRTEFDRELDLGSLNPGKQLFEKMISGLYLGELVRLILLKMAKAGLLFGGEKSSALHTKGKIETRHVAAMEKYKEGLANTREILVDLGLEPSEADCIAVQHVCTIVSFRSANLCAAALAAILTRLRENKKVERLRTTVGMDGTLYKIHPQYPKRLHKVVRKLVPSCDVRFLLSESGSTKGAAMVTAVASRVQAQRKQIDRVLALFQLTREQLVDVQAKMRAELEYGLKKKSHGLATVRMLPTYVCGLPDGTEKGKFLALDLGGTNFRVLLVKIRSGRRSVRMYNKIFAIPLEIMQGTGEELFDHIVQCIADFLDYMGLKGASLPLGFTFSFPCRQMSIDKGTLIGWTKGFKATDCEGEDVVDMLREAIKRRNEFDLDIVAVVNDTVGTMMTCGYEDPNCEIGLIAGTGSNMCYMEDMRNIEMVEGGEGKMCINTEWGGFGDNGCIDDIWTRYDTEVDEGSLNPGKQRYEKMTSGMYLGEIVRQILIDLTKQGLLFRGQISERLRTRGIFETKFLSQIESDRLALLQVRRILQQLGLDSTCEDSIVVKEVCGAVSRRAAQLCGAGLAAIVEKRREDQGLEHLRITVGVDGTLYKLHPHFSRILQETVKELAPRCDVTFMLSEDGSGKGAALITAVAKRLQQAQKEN
# [2] = biological target: T2, E3 ubiquitin-protein ligase XIAP (Homo sapiens, UniProt P98170); experiment: small molecules displacing peptide from XIAP – biochemical, IAP family, fluorescence polarization (AID 1018); type: functional
# T2 sequence (P98170 whole entry): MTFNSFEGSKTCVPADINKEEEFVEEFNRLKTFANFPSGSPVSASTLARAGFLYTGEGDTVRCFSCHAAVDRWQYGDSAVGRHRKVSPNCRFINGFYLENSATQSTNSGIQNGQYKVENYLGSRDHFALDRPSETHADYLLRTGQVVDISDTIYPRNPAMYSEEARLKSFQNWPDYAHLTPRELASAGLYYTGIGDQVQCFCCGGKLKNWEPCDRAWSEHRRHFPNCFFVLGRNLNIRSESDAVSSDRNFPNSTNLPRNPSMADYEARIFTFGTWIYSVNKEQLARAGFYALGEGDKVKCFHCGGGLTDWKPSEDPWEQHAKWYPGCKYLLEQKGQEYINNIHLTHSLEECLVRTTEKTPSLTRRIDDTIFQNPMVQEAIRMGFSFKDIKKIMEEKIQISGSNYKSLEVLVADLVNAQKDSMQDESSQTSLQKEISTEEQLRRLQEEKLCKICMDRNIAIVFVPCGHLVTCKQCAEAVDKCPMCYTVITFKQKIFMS
# [3] = biological target: T2, E3 ubiquitin-protein ligase XIAP; experiment: Counter Screen using XIAP-Bir3 for Chemical Antagonists of Bir1/2 domains of IAP-family anti-apoptotic proteins. [Related pubchem assays (depositor defined):AID1018, AID1449, AID1514, AID1638, AID1749, AID1750, AID488957, AID488963]
# HEK293 [4] = experiment: Cytotoxicity assay in HEK293 cells. [Related pubchem assays (depositor defined):AID1266, AID1269, AID1270, AID1271, AID1280, AID1281, AID1282, AID1283, AID1287, AID1289, AID1290, AID1291, AID1292, AID1293, AID1294, AID1295, AID1299, AID1302, AID1364, AID1365, AID1366, AID1367, AID1369, AID1370, AID1371, AID1372, AID1373, AID1374, AID1375, AID1384 …; type: functional, cell-based; settings: Homo sapiens
# HEK293 [5] = experiment: EBV LMP1 TES2 canonical NF-kB signalling blockers – cell-based, HEK293, luciferase, cherry-pick, dose response (AID 588343); type: functional; settings: Homo sapiens
# HEK293 [6] = experiment: PMA/Ionomycin induced NF-kB luciferase assay in 293- NF-kB-Luc stable cells. [Related pubchem assays: 1299, 1270, 1295, 1375, 1287, 1281, 1293, 1291, 1289, 1280, 465, 1364, 1282, 1372, 1365, 1370, 1367, 1366, 1269, 1373, 1292, 1290, 1302, 1371, 1283, 1271, 1294, 1374, 1368, 1369 ]; type: functional, cell-based; settings: Homo sapiens
# HEK293 [7] = experiment: TNF Induced NF-kB Luciferase in 293-NF-kB-Luc Stable Cells. [Related pubchem assays: 1266, 1299, 1269, 1373, 1292, 1290, 1302, 1371, 1283, 1270, 1295, 1271, 1375, 1294, 1374, 1281, 1293, 1291, 1289, 1280, 465, 1368, 1364, 1282, 1372, 1365, 1369, 1370, 1367, 1366 ]; type: functional, cell-based; settings: Homo sapiens
# [8] = Luminescence Cell-Based Dose Confirmation HTS to Identify Inhibitors of Platelet Dense Granule Release. [Related pubchem assays: 1663 (Primary HTS), 1678 (Summary of Project)]; type: functional
# [9] = biological target: T3, Luciferin 4-monooxygenase (Photinus pyralis, UniProt P08659); experiment: In vitro luciferase assay using purified luciferase. [Related pubchem assays: 1299, 1270, 1295, 1375, 1287, 1281, 1293, 1291, 1289, 1280, 465, 1364, 1282, 1372, 1365, 1370, 1367, 1366, 1266, 1373, 1292, 1290, 1302, 1371, 1283, 1271, 1294, 1374, 1368, 1369 ]
# T3 sequence (P08659 whole entry): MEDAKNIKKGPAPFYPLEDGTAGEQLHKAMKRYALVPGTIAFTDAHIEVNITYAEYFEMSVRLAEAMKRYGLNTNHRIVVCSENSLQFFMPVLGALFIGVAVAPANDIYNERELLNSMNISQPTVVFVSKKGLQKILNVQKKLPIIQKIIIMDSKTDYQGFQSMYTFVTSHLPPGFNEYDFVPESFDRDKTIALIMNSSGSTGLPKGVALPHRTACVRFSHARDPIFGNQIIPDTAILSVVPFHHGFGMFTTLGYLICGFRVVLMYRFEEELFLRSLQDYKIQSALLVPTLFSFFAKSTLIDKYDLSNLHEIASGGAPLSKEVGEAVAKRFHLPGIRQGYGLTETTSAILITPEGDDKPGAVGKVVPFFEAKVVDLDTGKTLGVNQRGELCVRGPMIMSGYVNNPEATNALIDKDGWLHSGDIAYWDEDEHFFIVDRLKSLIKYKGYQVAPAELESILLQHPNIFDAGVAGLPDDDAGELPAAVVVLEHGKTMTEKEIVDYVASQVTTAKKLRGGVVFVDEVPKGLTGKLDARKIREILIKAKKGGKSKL
# [10] = biological target: T3, Luciferin 4-monooxygenase; experiment: inhibition of purified Photinus pyralis luciferase – biochemical, luminescence, dose response (AID 1891)
# HeLa = experiment: ATP-based viability loss in HeLa cells – cell-based, CellTiter-Glo luminescence, cherry-pick samples, cytotoxicity control for MITF activator project, dose response (AID 540259); type: functional; settings: Homo sapiens
# [11] = biological target: Peroxisome proliferator-activated receptor gamma/Nuclear receptor coactivator 2 (Homo sapiens, UniProt P37231); experiment: (§1) TR-FRET dose response biochemical High Throughput Screening assay for agonists of the steroid receptor coactivator 2 (SRC-2) recruitment by the peroxisome proliferator-activated receptor gamma (PPAR gamma): non-selective agonists. [Related pubchem assays: 1297, 1032 ]; type: functional
# [12] = biological target: Peroxisome proliferator-activated receptor gamma/Nuclear receptor coactivator 1 (Homo sapiens, UniProt P37231); experiment: as §1, with “1 (SRC-1)” for “2 (SRC-2)”, “assays (depositor defined):AID1300, AID1808, AID504735, AID631]” for “assays: 1297, 1032 ]”; type: protein assay
# [13] = biological target: Peroxisome proliferator-activated receptor gamma/Nuclear receptor coactivator 3 (Homo sapiens, UniProt P37231); experiment: as §1, with “3 (SRC-3)” for “2 (SRC-2)”, “1301 (Confirmation screen.), 1048 (Primary screen.)]” for “1297, 1032 ]”; type: functional
# Prothrombin = Prothrombin (Bos taurus, UniProt P00735); experiment: thrombin protease inhibitors – biochemical, fluorescence polarization, uHTS hits, dose response (AID 602369); type: functional
# INS1 = experiment: INS-1E survival protection against cytokine death – cell-based, luminescence, retest, dose response (AID 449756); type: functional; settings: Rattus norvegicus;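 further: cell death triggered by IL-1 beta plus TNF-alpha plus IFN-gamma mixture; protective hits raise ATP signal compared with cytokine alone wells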
# [14] = biological target: 72 kDa type IV collagenase (Homo sapiens, UniProt P08253); experiment: Dose Response validation of uHTS RPN11 inhibitor hits using a MMP-2 Fluorescence assay.; type: functional
# Sequence of 72 kDa type IV collagenase (P08253 whole entry): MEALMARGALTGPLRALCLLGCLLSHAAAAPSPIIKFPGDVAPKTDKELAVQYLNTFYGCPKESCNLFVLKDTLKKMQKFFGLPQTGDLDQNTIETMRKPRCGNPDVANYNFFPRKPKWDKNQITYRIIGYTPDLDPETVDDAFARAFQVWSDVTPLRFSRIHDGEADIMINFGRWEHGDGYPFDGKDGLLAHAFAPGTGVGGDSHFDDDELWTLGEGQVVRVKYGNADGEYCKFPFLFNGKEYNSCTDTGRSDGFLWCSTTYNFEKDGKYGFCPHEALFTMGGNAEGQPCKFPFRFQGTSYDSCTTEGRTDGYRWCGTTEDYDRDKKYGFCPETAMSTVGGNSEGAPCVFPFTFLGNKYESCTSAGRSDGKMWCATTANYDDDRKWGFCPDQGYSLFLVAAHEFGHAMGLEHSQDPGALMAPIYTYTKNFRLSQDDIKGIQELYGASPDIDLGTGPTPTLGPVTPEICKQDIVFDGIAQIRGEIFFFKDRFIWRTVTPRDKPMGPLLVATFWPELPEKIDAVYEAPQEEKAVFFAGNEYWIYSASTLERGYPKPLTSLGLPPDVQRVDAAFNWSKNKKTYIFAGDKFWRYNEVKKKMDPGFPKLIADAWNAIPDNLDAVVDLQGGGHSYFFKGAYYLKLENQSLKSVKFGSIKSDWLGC
# [15] = NIH-3T3 fibroblast cytotoxicity, dose response, cytotoxicity control, cell-based, fluorescence, Alamar Blue, secondary assay (AID 2327); type: functional;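 further: NIH-3T3 mouse fibroblasts cultured with fluconazole at 8 µg/mL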
# [16] = fluconazole-exposed Candida albicans growth modulators – fluorescence, retest, confirmation (AID 2467); type: functional, cell-based
# [17] = biological target: 26S proteasome non-ATPase regulatory subunit 14 (Homo sapiens, UniProt O00487); experiment: inhibition of proteasome subunit RPN11 – biochemical, fluorescence polarization, uHTS hits, confirmation (AID 602368); type: functional
# Sequence of 26S proteasome non-ATPase regulatory subunit 14 (O00487 whole entry): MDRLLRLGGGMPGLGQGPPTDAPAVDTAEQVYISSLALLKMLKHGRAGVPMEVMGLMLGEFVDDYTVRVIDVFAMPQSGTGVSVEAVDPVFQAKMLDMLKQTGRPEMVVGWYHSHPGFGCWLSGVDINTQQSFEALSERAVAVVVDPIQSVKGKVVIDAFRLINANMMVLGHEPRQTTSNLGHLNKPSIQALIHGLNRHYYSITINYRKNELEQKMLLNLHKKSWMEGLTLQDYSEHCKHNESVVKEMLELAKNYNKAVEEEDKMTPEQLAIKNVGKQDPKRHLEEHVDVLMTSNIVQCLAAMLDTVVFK
# Streptokinase A = biological target: T4, Streptokinase A (Streptococcus pyogenes serotype M1, UniProt P10520); experiment: viability-normalized secreted streptokinase activity reduction – plasminogen activation absorbance, OD405, dose response (AID 1914); type: functional, Streptococcus pyogenes M1 GAS;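 further: secreted streptokinase activity via plasminogen activation per viability signal from cell pellet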
# T4 sequence (P10520 whole entry): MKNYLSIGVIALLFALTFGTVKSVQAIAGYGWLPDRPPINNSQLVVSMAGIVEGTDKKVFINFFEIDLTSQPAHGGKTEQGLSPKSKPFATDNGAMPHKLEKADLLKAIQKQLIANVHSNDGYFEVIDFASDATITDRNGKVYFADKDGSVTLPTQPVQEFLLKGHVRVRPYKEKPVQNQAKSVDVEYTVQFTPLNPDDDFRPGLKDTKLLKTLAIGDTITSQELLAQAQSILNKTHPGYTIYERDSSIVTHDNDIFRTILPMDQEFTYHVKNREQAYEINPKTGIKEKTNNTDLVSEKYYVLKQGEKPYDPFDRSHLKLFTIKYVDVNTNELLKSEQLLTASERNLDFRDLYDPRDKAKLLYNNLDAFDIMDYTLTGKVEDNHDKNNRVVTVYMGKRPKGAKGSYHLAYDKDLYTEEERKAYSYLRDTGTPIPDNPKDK
# [18] = CCR5-tropic HIV-1 fusion blockers – cell-based, CCR5-tropic Env, dose response (AID 2279); type: functional
# [19] = system: Streptococcus sp. 'group A'; experiment: Streptococcus pyogenes SK(-)GAS viability under kanamycin – luminescence, BacTiterGlo, confirmation, counter-screen for streptokinase expression inhibitor project, dose response (AID 1900); type: functional, organism-based
# Streptococcus = experiment: GAS UMAA2166 growth inhibition – luminescence, BacTiterGlo, counter-screen for streptokinase expression inhibitor project, dose response (AID 1915); type: functional, organism-based;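 further: potency for reduction of bacterial viability or growth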
# [20] = A Cell Based Secondary Assay To Explore Cytotoxicity of Compounds that Sensitize Mycobacterium Tuberculosis to Beta-Lactam Antibiotics.; type: functional
# CAAX prenyl protease 2 = CAAX prenyl protease 2 (Saccharomyces cerevisiae S288c, UniProt Q03530); type: biochemical
# Sequence of CAAX prenyl protease 2 (Q03530 whole entry): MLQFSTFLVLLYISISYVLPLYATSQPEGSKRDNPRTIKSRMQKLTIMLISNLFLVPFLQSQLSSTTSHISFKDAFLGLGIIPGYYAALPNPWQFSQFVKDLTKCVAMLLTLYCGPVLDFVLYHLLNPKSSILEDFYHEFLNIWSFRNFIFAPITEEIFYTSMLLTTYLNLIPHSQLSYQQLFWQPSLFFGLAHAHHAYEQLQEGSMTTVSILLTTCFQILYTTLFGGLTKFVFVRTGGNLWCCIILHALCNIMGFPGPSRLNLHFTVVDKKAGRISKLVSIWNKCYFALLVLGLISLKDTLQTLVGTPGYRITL
# Trypsin = Trypsin (Sus scrofa, UniProt P00761); experiment: trypsin protease activity blockade – biochemical, quenched peptide fluorescence, cherry-pick, selectivity assay for Rce1 protease inhibitor project, dose response (AID 488789)
# Sequence of Trypsin (P00761 whole entry): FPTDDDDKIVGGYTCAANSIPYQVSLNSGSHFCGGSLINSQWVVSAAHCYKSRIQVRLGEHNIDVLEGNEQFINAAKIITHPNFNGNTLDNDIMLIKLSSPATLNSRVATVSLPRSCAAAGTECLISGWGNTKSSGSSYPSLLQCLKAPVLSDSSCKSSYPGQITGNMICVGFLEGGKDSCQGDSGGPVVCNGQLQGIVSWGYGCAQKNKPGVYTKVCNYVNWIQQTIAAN
# Sequence of Lysosomal acid glucosylceramidase (P04062 whole entry): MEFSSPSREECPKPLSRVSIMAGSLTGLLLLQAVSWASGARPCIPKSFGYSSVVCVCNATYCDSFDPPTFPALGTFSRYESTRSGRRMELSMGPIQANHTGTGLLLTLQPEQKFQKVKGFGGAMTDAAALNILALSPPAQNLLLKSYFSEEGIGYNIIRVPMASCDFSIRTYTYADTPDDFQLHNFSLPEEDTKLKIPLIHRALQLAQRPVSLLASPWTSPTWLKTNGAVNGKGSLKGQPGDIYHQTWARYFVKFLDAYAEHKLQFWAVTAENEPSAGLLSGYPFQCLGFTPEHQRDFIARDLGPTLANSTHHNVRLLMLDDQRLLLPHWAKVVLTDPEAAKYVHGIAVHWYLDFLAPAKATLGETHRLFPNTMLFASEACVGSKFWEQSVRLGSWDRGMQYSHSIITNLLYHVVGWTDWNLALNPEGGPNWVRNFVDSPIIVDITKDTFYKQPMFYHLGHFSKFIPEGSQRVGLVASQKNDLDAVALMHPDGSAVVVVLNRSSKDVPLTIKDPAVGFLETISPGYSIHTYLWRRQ
structure (smiles),measurement,setting,value
Cc1ccc(N2C(=O)Nc3ccc(Br)cc3C2(O)C(=O)NCCCN(C)C)cc1C (centres undefined),EC50,[1],> 50 µM (not active)
Cc1cccc2c(N=NC(=O)c3ccc(NS(=O)(=O)c4cccs4)cc3)c(O)[nH]c12,IC50,Hexokinase HKDC1,15.5 µM (active)
c1ccc(Cn2c(SCc3nc4ccccc4s3)nnc2-c2ccco2)cc1,EC50,[1],> 50 µM (not active)
Cc1ccccc1Oc1nnc(-c2cccs2)c2ccccc12,IC50,[2],> 100 µM (not active)
same,IC50,[3],> 100 µM (inactive)
CC(=O)c1ccc(-c2nc3c4ccccc4ccn3c2C(C)=O)o1,EC50,HEK293 [4],> 8 µM (inactive)
same,AC50,HEK293 [5],3.1 µM (active)
same,EC50,HEK293 [6],0.0552 µM (active)
same,EC50,HEK293 [7],0.503 µM (active)
same,EC50,[8],> 112 µM (not active)
same,EC50,[9],> 8 µM (not active)
same,EC50,[10],> 112 µM (not active)
O=C(Nc1ccccc1)c1ccc(-c2ccccc2)s1,AC50,HeLa,48 µM (active)
same,EC50,[11],10.6 µM (not active)
same,EC50,[12],8.84 µM (active)
same,EC50,[13],35 µM (not active)
COc1cc([N+](=O)[O-])cc(/C=N/NC(=O)c2cc(-c3ccccc3)nc3ccccc23)c1O,IC50,Prothrombin,75.1 µM (active)
same,AC50,INS1,3.63 µM (active)
same,IC50,[14],3.79 µM (active)
same,EC50,[15],22.5 µM (inconclusive)
same,EC50,[16],2.08 µM (active)
same,IC50,[17],22.3 µM (active)
same,EC50,Streptokinase A,> 150 µM (not active)
same,IC50,[18],31.7 µM (active)
same,EC50,[19],5.37 µM (active)
same,EC50,Streptococcus,8.58 µM (active)
Cc1cc(O)nc(N/N=C/c2c(F)c(F)c(F)c(F)c2F)n1,CC50,[20],> 40 µM (active)
Cc1cccc(/C=N/NC(=O)c2ccc(Br)cc2)c1,AC50,CAAX prenyl protease 2,7.44 µM (active)
same,AC50,Trypsin,7.5 µM (active)
